According to PubChem BioAssay AID248 (DTP/NCI, 2004):
Where “and” joins values, the source holds several entries; their conditions need not be identical. Identical values can stand only once. Inconclusive results and toxic doses are left out. Cut-off read from the data, not from the text of the source: active = T/C of 150% or more; inactive = T/C below 125%.

System: L1210 leukemia ip in BDF1 mice, survival T/C
Experiment: NCI In Vivo Anticancer Drug Screen. Data for tumor model L1210 Leukemia (intraperitoneal) in B6D2F1 (BDF1) mice
Conditions: endpoint: mean survival time, higher = longer survival
How it was run: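 Mice bearing the transplanted tumor received compound or vehicle. Survival of the treated group was divided by that of the vehicle-treated control group to give the ratio.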

[1] = dose: 50.0 mg/kg/injection, schedule: Q01DX009 (ip), vehicle: Klucel (hydroxypropylcellulose) (HPC)
[2] = dose: 100.0 mg/kg/injection, schedule: Q01DX009 (ip), vehicle: Klucel (hydroxypropylcellulose) (HPC)
[3] = dose: 100.0 mg/kg/injection, schedule: Q01DX001 (ip), vehicle: saline
[4] = dose: 200.0 mg/kg/injection, schedule: Q01DX001 (ip), vehicle: saline
[5] = dose: 400.0 mg/kg/injection, schedule: Q01DX001 (ip), vehicle: saline
[6] = dose: 100.0 mg/kg/injection, schedule: Q01DX001 (ip), vehicle: carboxymethylcellulose (CMC)
[7] = dose: 200.0 mg/kg/injection, schedule: Q01DX001 (ip), vehicle: carboxymethylcellulose (CMC)
[8] = dose: 400.0 mg/kg/injection, schedule: Q01DX001 (ip), vehicle: carboxymethylcellulose (CMC)
[9] = dose: 100.0 mg/kg/injection, schedule: Q01DX001 (ip), vehicle: other
[10] = dose: 200.0 mg/kg/injection, schedule: Q01DX001 (ip), vehicle: other
[11] = dose: 400.0 mg/kg/injection, schedule: Q01DX001 (ip), vehicle: other
[12] = dose: 100.0 mg/kg/injection, schedule: Q01DX009 (ip), vehicle: saline with Tween-80
[13] = dose: 100.0 mg/kg/injection, schedule: Q04DX003 (ip), vehicle: saline with Tween-80
[14] = dose: 200.0 mg/kg/injection, schedule: Q01DX009 (ip), vehicle: saline with Tween-80
[15] = dose: 200.0 mg/kg/injection, schedule: Q04DX003 (ip), vehicle: saline with Tween-80
[16] = dose: 400.0 mg/kg/injection, schedule: Q01DX009 (ip), vehicle: saline with Tween-80
[17] = dose: 400.0 mg/kg/injection, schedule: Q04DX003 (ip), vehicle: saline with Tween-80
[18] = dose: 100.0 mg/kg/injection, schedule: Q01DX001 (ip), vehicle: Klucel (hydroxypropylcellulose) (HPC)
[19] = dose: 200.0 mg/kg/injection, schedule: Q01DX001 (ip), vehicle: Klucel (hydroxypropylcellulose) (HPC)
[20] = dose: 400.0 mg/kg/injection, schedule: Q01DX001 (ip), vehicle: Klucel (hydroxypropylcellulose) (HPC)
[21] = dose: 25.0 mg/kg/injection, schedule: Q04DX003 (ip), vehicle: saline
[22] = dose: 50.0 mg/kg/injection, schedule: Q04DX003 (ip), vehicle: saline
[23] = dose: 100.0 mg/kg/injection, schedule: Q04DX003 (ip), vehicle: saline

Measured: T/C

O=[Se]1OCc2ccccc2CO1
inactive: dose: 9.5 mg/kg/injection, schedule: Q01DX001 (ip), vehicle: saline with Tween-80 101 % of control | dose: 19.0 mg/kg/injection, schedule: Q01DX001 (ip), vehicle: saline with Tween-80 106 % of control | dose: 38.0 mg/kg/injection, schedule: Q01DX001 (ip), vehicle: saline with Tween-80 113 % of control

CC1(C)CCCC(Br)C1=O (stereo not drawn)
inactive: [1] 97 % of control | [2] 104 % of control

CCCCCCC1c2ccccc2CC1CCCC (stereo not drawn)
inactive: dose: 50.0 mg/kg/injection, schedule: Q01DX001 (ip), vehicle: saline 102 % of control | [3] 104 % of control | [4] 102 % of control | [5] 98 % of control

Cc1ccc(C(OC(=O)c2ccccc2)c2nccc3ccccc23)cc1 (stereo not drawn)
inactive: [3] 86 % of control | [4] 98 % of control | [5] 98 % of control

C=C1C[C@]23C[C@@]1(O)CC[C@H]2[C@@]12C=C[C@H](O)[C@@](C)(C(=O)O1)[C@H]2[C@@H]3C(=O)O
inactive: [6] 94 % of control | [3] 104 % of control | dose: 100.0 mg/kg/injection, schedule: Q01DX009 (ip), vehicle: acetone 97 % of control | [7] 96 % of control | [4] 104 % of control | dose: 200.0 mg/kg/injection, schedule: Q01DX009 (ip), vehicle: acetone 94 % of control | [8] 94 % of control | [5] 104 % of control | dose: 400.0 mg/kg/injection, schedule: Q01DX009 (ip), vehicle: acetone 95 % of control | dose: 800.0 mg/kg/injection, schedule: Q01DX009 (ip), vehicle: acetone 92 % of control

CCOC(=O)/C(O)=C\c1cc(OC)n[n+]([O-])c1Cl
inactive: dose: 25.0 mg/kg/injection, schedule: Q04DX002 (ip), vehicle: saline with Tween-80 102 % of control | dose: 50.0 mg/kg/injection, schedule: Q04DX002 (ip), vehicle: saline with Tween-80 98 % of control | dose: 100.0 mg/kg/injection, schedule: Q04DX002 (ip), vehicle: saline with Tween-80 102 % of control

CC(=O)O[C@H]1CC[C@]2(C)C3=C([C@@H](OO)C[C@H]2C1(C)C)[C@]1(C)CC[C@H]([C@H](C)CCCC(C)C)[C@@]1(C)CC3
inactive: [9] 97 % of control | [10] 95 % of control | [11] 95 % of control

CCCCC(N)C(=O)O (stereo not drawn)
inactive: dose: 100.0 mg/kg/injection, schedule: Q04DX003 (ip), vehicle: Klucel (hydroxypropylcellulose) (HPC) 98 % of control | dose: 200.0 mg/kg/injection, schedule: Q04DX003 (ip), vehicle: Klucel (hydroxypropylcellulose) (HPC) 95 % of control | dose: 400.0 mg/kg/injection, schedule: Q04DX003 (ip), vehicle: Klucel (hydroxypropylcellulose) (HPC) 98 % of control

Cc1cc(C)c(NS(=O)(=O)c2ccccc2)c(C)n1
inactive: [12] 98 % of control and 100 % of control | [13] 96 % of control | [14] 91 % of control and 92 % of control | [15] 100 % of control | [16] 96 % of control and 97 % of control | [17] 96 % of control

S=c1nc(COc2ccccc2Cl)[nH][nH]1
inactive: dose: 50.0 mg/kg/injection, schedule: Q01DX009 (ip), vehicle: saline with Tween-80 106 % of control | [12] 100 % of control | [13] 98 % of control | [14] 97 % of control | [15] 102 % of control | [16] 98 % of control | [17] 96 % of control

Cc1ccc2c(c1)OC(=O)CC2C (stereo not drawn)
inactive: [6] 100 % of control | [7] 96 % of control | [8] 96 % of control

Clc1ccc(-n2cnnn2)cc1
inactive: [3] 98 % of control | [4] 98 % of control

CCOC(=O)N/N=C(/C)c1cccc([N+](=O)[O-])c1
inactive: dose: 25.0 mg/kg/injection, schedule: Q01DX009 (ip), vehicle: Klucel (hydroxypropylcellulose) (HPC) 103 % of control | [1] 103 % of control | [2] 100 % of control and 111 % of control

CCCCN1C(=O)c2ccncc2C1=O
inactive: dose: 100.0 mg/kg/injection, schedule: Q01DX001 (ip), vehicle: saline with Tween-80 95 % of control | [13] 98 % of control | dose: 200.0 mg/kg/injection, schedule: Q01DX001 (ip), vehicle: saline with Tween-80 98 % of control | [15] 103 % of control | dose: 400.0 mg/kg/injection, schedule: Q01DX001 (ip), vehicle: saline with Tween-80 111 % of control | [17] 100 % of control

CN(N=O)P(=O)(Nc1ccccc1)Nc1ccccc1
inactive: dose: 25.0 mg/kg/injection, schedule: Q01DX009 (ip), vehicle: saline 111 % of control | dose: 50.0 mg/kg/injection, schedule: Q01DX009 (ip), vehicle: saline 117 % of control | dose: 66.0 mg/kg/injection, schedule: Q01DX009 (ip), vehicle: other 103 % of control | dose: 100.0 mg/kg/injection, schedule: Q01DX009 (ip), vehicle: other 100 % of control | dose: 100.0 mg/kg/injection, schedule: Q04DX003 (ip), vehicle: saline sonified 122 % of control | dose: 150.0 mg/kg/injection, schedule: Q01DX009 (ip), vehicle: other 88 % of control

CCCCCCCCCCCCCCCCCCOC(=O)c1ccco1
inactive: [9] 96 % of control | [10] 105 % of control | [11] 92 % of control

CC12CCC(=O)C3C1CCCC32
inactive: [6] 100 % of control | [7] 111 % of control | [8] 103 % of control

Nc1cc(Cl)c(Cl)cc1Cl
inactive: [13] 97 % of control | [15] 101 % of control | [17] 100 % of control

Nc1ncc(CO)c(N)n1
inactive: dose: 25.0 mg/kg/injection, schedule: Q01DX001 (ip), vehicle: Klucel (hydroxypropylcellulose) (HPC) 100 % of control | dose: 50.0 mg/kg/injection, schedule: Q01DX001 (ip), vehicle: Klucel (hydroxypropylcellulose) (HPC) 98 % of control | [18] 98 % of control and 100 % of control

CCC(=O)C(c1ccccc1)(c1ccccc1)c1ccccc1
inactive: dose: 100.0 mg/kg/injection, schedule: Q04DX002 (ip), vehicle: other 95 % of control | dose: 200.0 mg/kg/injection, schedule: Q04DX002 (ip), vehicle: other 100 % of control

COc1ccc(-n2c(=O)c(N=Nc3ccccc3C)c(O)n(-c3ccc(C)cc3)c2=S)cc1
inactive: [18] 95 % of control | [19] 97 % of control | [20] 97 % of control

CN(C)Cc1cccc([N+](=O)[O-])c1
inactive: [21] 88 % of control | [22] 98 % of control | [23] 102 % of control

ClCC1CC2CC1C1OC21 (stereo not drawn)
inactive: [3] 106 % of control

N#C/C(N)=C(/C#N)N=Cc1ccccc1
inactive: [18] 97 % of control | [19] 98 % of control | [20] 98 % of control

O=[N+]([O-])c1cc(Br)cc(Br)c1
inactive: [12] 97 % of control | [13] 91 % of control | [14] 99 % of control | [15] 94 % of control | [16] 93 % of control | [17] 93 % of control

O=C1OC(c2ccc(Cl)cc2)Sc2ccccc21 (stereo not drawn)
inactive: [13] 103 % of control | [15] 94 % of control | [17] 100 % of control

O=C(COc1ccc(Cl)c(Cl)c1)NCc1ccc[n+](Cc2ccc(Cl)c(S(=O)(=O)F)c2)c1
inactive: [21] 114 % of control | [22] 118 % of control | [23] 100 % of control and 112 % of control

O=C(CCl)Oc1c(Cl)c(Cl)c(Cl)c(Cl)c1Cl
inactive: dose: 6.25 mg/kg/injection, schedule: Q04DX003 (ip), vehicle: alcohol 100 % of control | dose: 12.5 mg/kg/injection, schedule: Q04DX003 (ip), vehicle: alcohol 98 % of control | dose: 25.0 mg/kg/injection, schedule: Q04DX003 (ip), vehicle: alcohol 98 % of control | dose: 100.0 mg/kg/injection, schedule: Q04DX003 (ip), vehicle: alcohol 111 % of control

CCOC(=O)CCCc1c[nH]c2ccccc12
inactive: [12] 101 % of control | [13] 95 % of control | [14] 101 % of control | [15] 100 % of control | [16] 102 % of control | [17] 95 % of control

O=C(C(c1ccccn1)=P(c1ccccc1)(c1ccccc1)c1ccccc1)c1ccc([N+](=O)[O-])cc1
inactive: [1] 88 % of control | [2] 91 % of control | dose: 200.0 mg/kg/injection, schedule: Q01DX009 (ip), vehicle: Klucel (hydroxypropylcellulose) (HPC) 98 % of control
